Laboratory results published in article PMC10600239, “Selective MCL-1 inhibitor ABBV-467 is efficacious in tumor models but is associated with cardiac troponin increases in patients” (Communications Medicine, 2023).
“And” between values parts separate entries of the source, which are not always exact repeats. Identical values can stand only once. Like-named read-outs stand apart in the source and are kept apart here.

Legend:
DLD-1 cells = assay: In vitro cell viability assay (CellTiter-Glo); type: cell-based, human; conditions: for EC50: Homo sapiens
Procedure: (§1) All cell lines were grown and treated in RPMI 1640 or Dulbecco’s modified Eagle medium (Sigma, St. Louis, MO) supplemented with 10% fetal bovine serum (Gibco) or 10% human serum (Sigma) and maintained in a humidified incubator at 5% CO2 and 37 °C. DLD-1, MV4-11, NCI-H929 (all ATCC, Manassas, VA, USA) and AMO-1 (DSMZ, Braunschweig, Germany) cells were plated 4000 cells per well in 384-well tissue culture plates and treated with compounds of interest for 24 h at 37 °C, 5% CO2 humidified incubator. Each concentration was tested in duplicate at least 3 separate times. Adherent cells were allowed to adhere overnight prior to treatment. Alternatively, AMO-1 or NCI-H929 cells were treated with ABBV-467 for the indicated contact times (1–24 h) at 37 °C in a 5% CO2 humidified incubator and washed 3 times with compound-free media prior to incubation for the remainder of a 24-h treatment period. Cell viability was subsequently determined using CellTiter-Glo (Promega, Madison, WI, USA) according to the manufacturer’s instructions.
(§2) For in vitro viability assays, mean EC50 and EC90 values were determined from the resulting dose-response curves from at least 3 independent experiments, and depict the mean ± standard error of the mean.

MV4-11 cells = assay: In vitro cell viability assay (CellTiter-Glo); type: cell-based, human
Procedure: as §1, §2

troponin = assay: Troponin monitoring in phase 1 patients; type: in vivo, human; conditions: for Troponin I, Local Lab: reference range 2.3 to 20 ng/L
Procedure: Blood samples for plasma ABBV-467 concentration analysis were collected on days 1, 2, 3, and 15–17 of cycle 1 as well as on days 1 of cycles for PK analysis. Plasma samples of ABBV-467 were quantified using a validated LC-tandem MS with a lower limit of detection of 3 ng/mL. ABBV-467 PK parameters were calculated using standard non-compartmental approaches with Phoenix, WinNonlin (Version 8.0, Certara). AE severity was graded according to the National Cancer Institute Common Terminology Criteria for Adverse Events v5.0 for up to 30 days after the last dose. Analyses of AEs will include only treatment-emergent AEs. Triplicate ECGs were performed on days 1, 2, 15, and 16 of cycle 1. […] An echocardiogram was performed at screening and day 1 of cycle 2 and cycle 6. […]
Creatine Phosphokinase and Troponin Enzymes
Blood samples will be collected on the days specified in Section 2 for analysis of creatine phosphokinase and troponin serum concentrations. Clinical significance of these enzymes will be evaluated within the […]
context of the study. Samples should also be obtained as clinically indicated in the opinion of the investigator.
Table 9. Creatine Phosphokinase and Troponin Sampling Times […]
4, 8, 24, and 48 hours post-EOI
4, 8, 24 and 48 hours post-EOI
Sample times are relative to ABBV-467 infusion. […]

## Cc1c(Cl)c2c(Cl)c(C)c1-c1c(-c3ccc(F)cc3)sc3ncnc(c13)O[C@@H](C(=O)O)Cc1cc(ccc1OCc1ccnc(-c3ccc(OC[C@H]4COCCO4)cc3)n1)OC[C@@H](CN1CCN(C)CC1)O2 [ABBV-467]
DLD-1 cells
  activity in DLD-1: inactive
DLD-1 cells; DLD-1, read-out: DLD-1 EC50 (nM), 10% FBS, 24 h continuous treatment
  EC50: > 10000 nM
DLD-1 cells; DLD-1, arithmetic mean, read-out: Arithmetic Mean EC50
  EC50: > 10000 nM
DLD-1 cells; DLD-1, individual determinations, read-out: Individual EC50
  EC50: > 10000 nM
MV4-11 cells; Homo sapiens, MV4-11, MV4-11, arithmetic mean, read-out: Arithmetic Mean EC50 µM
  EC50: 0.00391 µM
MV4-11 cells; Homo sapiens, MV4-11, MV4-11, individual determinations, read-out: Individual EC50
  EC50: 0.00403 µM
MV4-11 cells; MV4-11, individual determinations, read-out: Individual EC50
  EC50: 0.00422 µM and 0.00347 µM
troponin; Patient 1, C1D1, study day 1, reference range ≤ 0.04 ng/mL, Advia Centaur TnI-Ultra Assay
  Troponin I, Central Laboratory: <0.03 ng/mL
troponin; Patient 1, C1D2, study day 2, reference range ≤ 0.04 ng/mL
  Troponin I, Central Laboratory: <0.03 ng/mL
troponin; Patient 1, C1D15, study day 15, reference range ≤ 0.04 ng/mL
  Troponin I, Central Laboratory: <0.03 ng/mL
troponin; Patient 1, C1D16, study day 16, reference range ≤ 0.04 ng/mL
  Troponin I, Central Laboratory: <0.03 ng/mL
troponin; Patient 1, C1D17, study day 17, reference range ≤ 0.04 ng/mL
  Troponin I, Central Laboratory: <0.03 ng/mL
troponin; Patient 2, C1D1, study day 1, reference range ≤0.04 ng/mL
  Troponin I, Central Lab: <0.03 ng/mL
troponin; Patient 2, C1D2, study day 2, reference range ≤0.04 ng/mL
  Troponin I, Central Lab: <0.03 ng/mL
troponin; Patient 2, C1D3, study day 3, reference range ≤0.04 ng/mL
  Troponin I, Central Lab: <0.03 ng/mL
troponin; Patient 2, C1D8, study day 8, reference range ≤0.04 ng/mL
  Troponin I, Central Lab: <0.03 ng/mL
troponin; Patient 2, C1D16, study day 16, 4 hr postdose, reference range ≤0.04 ng/mL
  Troponin I, Central Lab: 0.24 (4 hr postdose) ng/ml
troponin; Patient 2, C1D16, study day 16, 8 hr postdose, reference range ≤0.04 ng/mL
  Troponin I, Central Lab: <0.03 (8 hr postdose) ng/ml
troponin; Patient 2, C1D17, study day 17, reference range ≤0.04 ng/mL
  Troponin I, Central Lab: 0.15 ng/mL
troponin; Patient 2, C1D18, study day 18, reference range ≤0.04 ng/mL
  Troponin I, Central Lab: 0.08 ng/mL
troponin; Patient 3, C1D1, study day 1, Beckman Coulter ACCESS high sensitivity Troponin I assay
  Troponin I, Local Lab: 8.1 ng/L
troponin; Patient 3, C1D1, study day 1, reference range ≤ 0.04 ng/mL
  Troponin I, Central Lab: <0.03 ng/mL
troponin; Patient 3, C1D2, study day 2
  Troponin I, Local Lab: 7.3 ng/L
troponin; Patient 3, C1D2, study day 2, reference range ≤ 0.04 ng/mL
  Troponin I, Central Lab: <0.03 ng/mL
troponin; Patient 3, C1D3, study day 3
  Troponin I, Local Lab: 10.2 ng/L
troponin; Patient 3, C1D3, study day 3, reference range ≤ 0.04 ng/mL
  Troponin I, Central Lab: <0.03 ng/mL
troponin; Patient 3, C1D4, study day 4
  Troponin I, Local Lab: 7.4 ng/L
troponin; Patient 3, C1D5, study day 5
  Troponin I, Local Lab: 7.3 ng/L
troponin; Patient 3, C1D9, study day 9
  Troponin I, Local Lab: 7.8 ng/L
troponin; Patient 3, C1D11, study day 11
  Troponin I, Local Lab: 37.7 ng/L
troponin; Patient 3, C1D12, study day 12
  Troponin I, Local Lab: 27.2 ng/L
troponin; Patient 3, C1D12, study day 12, reference range ≤ 0.04 ng/mL
  Troponin I, Central Lab: 0.05 ng/mL
troponin; Patient 3, C1D15 (No infusion; drug discontinued), study day 15
  Troponin I, Local Lab: 16.5 ng/L
troponin; Patient 4, C1D1, study day 1, 4hr postdose, reference range ≤ 0.04 ng/mL
  Troponin I, Central Lab: <0.03 (4hr postdose) ng/ml
troponin; Patient 4, C1D1, study day 1, 8hr postdose, reference range ≤ 0.04 ng/mL
  Troponin I, Central Lab: <0.03 (8hr postdose) ng/ml
troponin; Patient 4, C1D1, study day 1, predose, reference range ≤ 0.04 ng/mL
  Troponin I, Central Lab: <0.03 (predose) ng/ml
troponin; Patient 4, C1D2, study day 2, reference range ≤ 0.04 ng/mL
  Troponin I, Central Lab: <0.03 ng/mL
troponin; Patient 4, C1D3, study day 3, reference range ≤ 0.04 ng/mL
  Troponin I, Central Lab: <0.03 ng/mL
troponin; Patient 4, C1D15, study day 15, 4 hr postdose, reference range ≤ 0.04 ng/mL
  Troponin I, Central Lab: 0.06 (4 hr postdose) ng/ml
troponin; Patient 4, C1D15, study day 15, 8 hr postdose, reference range ≤ 0.04 ng/mL
  Troponin I, Central Lab: 0.04 ( 8 hr postdose) ng/ml
troponin; Patient 4, C1D15, study day 15, predose, reference range ≤ 0.04 ng/mL
  Troponin I, Central Lab: 0.04 (predose) ng/ml
troponin; Patient 4, C1D16, study day 16, reference range ≤ 0.04 ng/mL
  Troponin I, Central Lab: 0.04 ng/mL
troponin; Patient 4, C1D17, study day 17, reference range ≤ 0.04 ng/mL
  Troponin I, Central Lab: 0.05 ng/mL
troponin; Patient 4, C2D1, study day 29, postdose, reference range ≤ 0.04 ng/mL
  Troponin I, Central Lab: <0.03 (postdose) ng/ml
troponin; Patient 5, C1D1 4hr Post EOI, study day 1, reference range ≤0.04 ng/mL
  Troponin I, Central Laboratory: <0.03 ng/mL
troponin; Patient 5, C1D1 8hr post EOI, study day 1, reference range ≤0.04 ng/mL
  Troponin I, Central Laboratory: <0.03 ng/mL
troponin; Patient 5, C1D1 Predose, study day 1, reference range ≤0.04 ng/mL
  Troponin I, Central Laboratory: <0.03 ng/mL
troponin; Patient 5, C1D2 24h post EOI, study day 2, reference range ≤0.04 ng/mL
  Troponin I, Central Laboratory: <0.03 ng/mL
troponin; Patient 5, C1D3 48hr Post EOI, study day 3, reference range ≤0.04 ng/mL
  Troponin I, Central Laboratory: <0.03 ng/mL
troponin; Patient 5, C1D15 4hr Post EOI, study day 15, reference range ≤0.04 ng/mL
  Troponin I, Central Laboratory: <0.03 ng/mL
troponin; Patient 5, C1D15 8h post EOI, study day 15, reference range ≤0.04 ng/mL
  Troponin I, Central Laboratory: <0.03 ng/mL
troponin; Patient 5, C1D15 Predose, study day 15, reference range ≤0.04 ng/mL
  Troponin I, Central Laboratory: <0.03 ng/mL
troponin; Patient 5, C1D16 24h post EOI, study day 16, reference range ≤0.04 ng/mL
  Troponin I, Central Laboratory: <0.03 ng/mL
